Reference: publication PMC3914206

Tests used:
Type in all cases: binding
panel of 442 kinases [1] = target: T1, panel of 442 kinases (Homo sapiens, UniProt Q9Y2H9); details: Compound Concentration 10 µM
T1 construct: purchased KINOMEscan
Description: (§1) We assessed the selectivity of members of this scaffold using the KINOMEscan methodology across a near comprehensive panel of 442 kinases [[18,27]].

panel of 442 kinases [2] = target: T2, panel of 442 kinases (Homo sapiens, UniProt P43405); details: kinase SYK; compound concentration 10 µM
T2 construct: purchased KINOMEscan
Description: as §1

panel of 442 kinases [3] = target: T3, panel of 442 kinases (Homo sapiens, UniProt P51955); details: Compound Concentration 10 µM
T3 construct: purchased KINOMEscan
T3 sequence (P51955 1-445): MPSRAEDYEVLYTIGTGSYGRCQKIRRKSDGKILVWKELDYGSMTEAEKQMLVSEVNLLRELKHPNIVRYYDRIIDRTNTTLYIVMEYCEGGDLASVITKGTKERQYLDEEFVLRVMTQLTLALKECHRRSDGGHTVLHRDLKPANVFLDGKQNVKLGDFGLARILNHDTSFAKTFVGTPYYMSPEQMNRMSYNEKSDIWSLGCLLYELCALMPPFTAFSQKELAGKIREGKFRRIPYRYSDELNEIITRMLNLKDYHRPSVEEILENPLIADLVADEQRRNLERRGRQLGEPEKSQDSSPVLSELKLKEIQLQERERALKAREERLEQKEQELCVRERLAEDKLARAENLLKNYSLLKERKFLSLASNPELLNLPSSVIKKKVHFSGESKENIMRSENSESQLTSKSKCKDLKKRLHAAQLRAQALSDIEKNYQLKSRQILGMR
Description: as §1

T1 sequence (Q9Y2H9 whole entry): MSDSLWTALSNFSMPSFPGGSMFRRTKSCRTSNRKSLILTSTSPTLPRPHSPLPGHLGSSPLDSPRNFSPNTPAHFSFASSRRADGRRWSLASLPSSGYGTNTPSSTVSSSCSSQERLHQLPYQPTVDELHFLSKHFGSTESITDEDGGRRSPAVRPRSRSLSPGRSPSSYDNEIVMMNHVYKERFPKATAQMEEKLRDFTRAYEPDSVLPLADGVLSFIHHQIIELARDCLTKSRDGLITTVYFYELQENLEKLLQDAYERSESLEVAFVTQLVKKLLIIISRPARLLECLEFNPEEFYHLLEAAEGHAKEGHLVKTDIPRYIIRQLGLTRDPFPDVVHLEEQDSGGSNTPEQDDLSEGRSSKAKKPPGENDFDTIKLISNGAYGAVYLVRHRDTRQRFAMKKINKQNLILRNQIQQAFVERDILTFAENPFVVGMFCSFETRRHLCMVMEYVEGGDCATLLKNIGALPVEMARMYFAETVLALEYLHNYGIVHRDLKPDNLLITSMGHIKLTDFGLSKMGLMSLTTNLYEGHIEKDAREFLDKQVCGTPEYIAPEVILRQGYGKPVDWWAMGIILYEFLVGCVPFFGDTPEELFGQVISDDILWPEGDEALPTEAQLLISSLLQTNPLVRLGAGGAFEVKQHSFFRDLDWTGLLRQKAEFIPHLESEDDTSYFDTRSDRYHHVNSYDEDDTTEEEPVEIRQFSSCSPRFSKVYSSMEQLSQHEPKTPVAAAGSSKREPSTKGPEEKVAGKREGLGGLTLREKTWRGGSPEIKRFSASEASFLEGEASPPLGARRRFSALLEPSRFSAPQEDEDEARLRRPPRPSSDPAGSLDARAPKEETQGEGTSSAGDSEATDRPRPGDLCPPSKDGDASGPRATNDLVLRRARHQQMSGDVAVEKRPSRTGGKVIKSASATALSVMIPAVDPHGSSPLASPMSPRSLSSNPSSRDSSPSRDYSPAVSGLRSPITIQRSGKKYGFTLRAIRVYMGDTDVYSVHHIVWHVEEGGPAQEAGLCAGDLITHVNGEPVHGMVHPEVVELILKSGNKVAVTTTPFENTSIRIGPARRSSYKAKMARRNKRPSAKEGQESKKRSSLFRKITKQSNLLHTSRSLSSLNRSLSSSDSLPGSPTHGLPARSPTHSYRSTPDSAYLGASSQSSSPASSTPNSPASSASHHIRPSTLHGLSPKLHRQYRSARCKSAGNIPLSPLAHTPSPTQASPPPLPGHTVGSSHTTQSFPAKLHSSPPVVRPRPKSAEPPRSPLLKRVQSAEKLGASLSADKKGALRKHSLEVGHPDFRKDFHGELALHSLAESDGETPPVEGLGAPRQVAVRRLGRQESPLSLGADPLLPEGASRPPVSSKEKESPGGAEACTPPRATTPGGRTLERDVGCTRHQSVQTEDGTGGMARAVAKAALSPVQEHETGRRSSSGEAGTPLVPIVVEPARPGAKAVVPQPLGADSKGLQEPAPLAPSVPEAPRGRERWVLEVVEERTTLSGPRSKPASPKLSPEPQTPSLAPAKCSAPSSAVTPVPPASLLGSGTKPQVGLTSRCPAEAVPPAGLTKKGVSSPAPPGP

Row | Structure (SMILES) | KINOMEscan: MAST1 (panel of 442 kinases [1]) | % Ctrl, SYK (panel of 442 kinases [2]) | KINOMEscan: NEK2 (panel of 442 kinases [3])
1 | COc1cc(C(=O)N2CCC(N3CCN(C)CC3)CC2)ccc1Nc1ncc2c(n1)N(C)c1ccccc1C(=O)N2C [15 (LRRK2-IN-1)] | 100 | 100 % Ctrl | 100
2 | CCOc1cc(C(=O)N2CCC(N3CCN(C)CC3)CC2)ccc1Nc1ncc2c(n1)N(C1CCCC1)c1ccccc1C(=O)N2C [Compound 26] | 100 | 100 % Ctrl | 86
3 | COc1cc(C(=O)N2CCC(N3CCN(C)CC3)CC2)ccc1Nc1ncc2c(n1)N1CCc3cccc(c31)C(=O)N2C [Compound 24] | 73 | 88 % Ctrl | 62
4 | COc1cc(C(=O)N2CCC(N3CCN(C)CC3)CC2)ccc1Nc1ncc2c(n1)N(C1CCCC1)c1ccccc1C(=O)N2C [Compound 25, 11-cyclopentyl-2-((2-methoxy-4-(4-(4-methylpiperazin-1-yl)piperidine-1-carbonyl)phenyl)amino)-5-methyl-5H-benzo[e]pyrimido[5,4-b][1,4]diazepin-6(11H)-one] | 78 | 100 % Ctrl | 88
